The term IC50 denotes the concentration that gives 50% inhibition.

Read-outs that look alike come from different tables or passages of the source.

Data set [1] has as its system Plasmodium falciparum, Sierra Leone clone D6. Kind of data set: Inhibition of P. falciparum proliferation, [G-3H]-hypoxanthine incorporation, Sierra Leone clone D6 (chloroquine-sensitive). Type of data set: cell-based. Particulars: for IC50: Plasmodium falciparum. The procedure: (§1) 3. Effects of pyrimidine analogues alone or in combination with normal pyrimidine bases or nucleosides or with amino acid derivatives can be tested in malaria parasite-infected erythrocytes. Varying concentrations of pyrimidine analogues in culture medium are added to individual wells of microtitre plates [Desjardins, R. E. et al., Antimicrob. […] Parasitemic erythrocytes in culture medium are added to each well. […] As an alternative to adding a radioactive precursor of nucleic acid biosynthesis, the end point for determining the effects of added drugs can be the incorporation of a radioactive amino acid, e.g., [U-^14 C]-isoleucine, into parasite protein.
Fluoropyrimidines, dispersed in 25 μl of culture medium, were added to individual wells of a 96-well microtitre plate. […] Finally, the incorporation of 0.5 μCi of [G-^3 H]hypoxanthine (1 Ci/mmol) into nucleic acids in each well was determined; this served as a measure of parasite proliferation. […] In a second method, the increase in parasitemia was determined directly by smearing infected erythrocytes on microscope slides, staining with Giemsa stain, and determining the ratio of infected to non-infected erythrocytes. In a third method, parasite-infected erythrocytes were incubated with [U-^14 C]-isoleucine (0.5 μCi; 0.33 Ci/mmol), and the amount of radioactivity incorporated into precipitable proteins determined.

Data set [2] is described as follows: Pharmacokinetics of 5-fluoro-orotate in mice. Type of data set: in vivo, Swiss white mice. The procedure: FIG. 3 illustrates time-dependant changes in plasma 5-fluoroorotate concentration following single intraperitoneal injections of 5-fluoro-orotate at 0.2 mg/kg (.box-solid.), 1 mg/kg (.diamond-solid.), or 5 mg/kg (.tangle-solidup.). Two mice were used at each dosage level. At each time point, duplicate 200 μl samples of blood were drawn and analyzed for 5-fluoro-orotate concentration.
Several types of in vivo experiments in intact vertebrates can be used to test the effectiveness in vivo of the anti-malarial compositions of this invention. In one in vivo test system, dosage regimens for pyrimidine analogues are estimated by determining the pharmacokinetics of the drugs. Normal and malaria parasite-infected animals (preferably mice, but other rodents can be used) are injected once (preferably intraperitoneally, but subcutaneous or intravenous administration is also suitable) with the drug at various doses, e.g, from 0 to about 10 mg/kg body weight, preferably from about 0.2 to about 5 mg/kg body weight. At various time points (preferably from about 3 to about 180 minutes), blood samples are drawn from the animals and the amount of the drug in the plasma fraction determined as described in Example 7 below. The concentration of drug is plotted as a function of time for each drug dosage.
Pairs of Swiss white mice (Charles River Labs, Mass.) were injected intraperitoneally with 200 μl of [2-^14 C]-5-fluoro-orotate in saline (55 μCi/μmol). Single injections of the drug were made at dosages of 0.2, 1 and 5 mg/kg body weight. At time points ranging from about 3 to about 180 minutes, two 200 μl blood samples were drawn from the tail veins of the mice, and the amount of 5-fluoro-orotate present in the plasma determined, as described below.
Blood samples were immediately diluted in 100 μl of cold saline, and centrifuged in a desk top Eppendorf centrifuge for 1 minute to separate the plasma fraction from blood cells. Cell pellets were washed with 100 μl of saline, centrifuged, and the supernatant fractions mixed with plasma fractions. In order to determine the 5-fluoro-orotate concentrations of the diluted plasma fractions, the radioactive content of half the samples was determined by liquid scintillation spectrometry. The remaining samples were chromatographed on a Pharmacia FPLC system using a Mono Q anion-exchange column.

In data set [3] the test system is Plasmodium falciparum, Indochina clone W2. Kind of data set: microbe, parasite or virus in culture. The settings on record: for IC50: Plasmodium falciparum. The procedure:
In the antimalarial experiment with parasites, incorporation of radioactivity from [G-^3 H]-hypoxanthine into nucleic acids served as a measure of parasite proliferation. […] Each data point represents an average of two determinations. In the study of toxicity to human cells, proliferation of cells was determined directly by measuring the number of viable cells per well. […] Each data point represents an average of two determinations. 5-fluoro-orotate (.circle-solid.), 5-fluorouracil (.box-solid.), 5-fluorouridine (.tangle-solidup.), and 5-fluoro-2'-deoxyuridine (.diamond-solid.).
Half shaded symbols represent overlapping data points.
as §1
Fluoropyrimidines, dispersed in 25 μl of culture medium, were added to individual wells of a 96-well microtitre plate. […] Finally, the incorporation of 0.5 μCi of [G-^3 H]hypoxanthine (1 Ci/mmol) into nucleic acids in each well was determined; this served as a measure of parasite proliferation.

For data set [4], the system named is Plasmodium falciparum, Sierra Leone clone. As to the kind of experiment: Increase in parasitemia by light microscopy (Giemsa-stained smears), Sierra Leone clone. Type of data set: cell-based, P. falciparum. The settings on record: Table 2, light microscopy. How it is done:
Additionally, parasite-infected and treated erythrocytes can be smeared on microscope slides, stained with, e.g., Giemsa stain, and the ratio of infected to non-infected erythrocytes determined.
The chloroquine-sensitive Sierra Leone clone of P. falciparum was cultured in erythrocytes as in Example 1 above. In one method of determining the toxicity of 5-fluoro-orotate, [G-^3 H]-hypoxanthine uptake was used as an indicator of parasite proliferation, according to the procedure of Example 1 above. In a second method, the increase in parasitemia was determined directly by smearing infected erythrocytes on microscope slides, staining with Giemsa stain, and determining the ratio of infected to non-infected erythrocytes. In a third method, parasite-infected erythrocytes were incubated with [U-^14 C]-isoleucine (0.5 μCi; 0.33 Ci/mmol), and the amount of radioactivity incorporated into precipitable proteins determined.

Turning to `O=C(O)c1[nH]c(=O)[nH]c(=O)c1F` [5-fluoro-orotate], the IC50 in data set [1] (D6, Example 3, Table 2, hypoxanthine uptake) worked out at 2.2 nM; in data set [1] (D6, Sierra Leone clone, Table 1, mean ± S.D. of five independent drug response curves), 5.8 ± 3.1 nM; in data set [3] (W2), 6 ± 1.7 nM; in data set [3] (W2, 48 h) it was 6 nM; in data set [4], 2.5 nM. The “times more active than chloroquine” value in data set [1] (chloroquine-sensitive Sierra Leone clone) was 1.6 times; in data set [3] (multidrug-resistant Indochina clone), 21 times. Moreover, the “identity of plasma radioactivity” value in data set [2] (90 minutes after injection, Mono Q chromatography) is “radioactivity in the plasma fraction was due to 5-fluoro-orotate and not some secondary metabolite of the experimental drug”. Moreover, the “plasma pharmacokinetic profile in infected mice” value in data set [2] (P. yoelii infected (10% parasitemia), 1 mg/kg, vs uninfected mice) is “essentially the same as that of uninfected mice”. The “circulating radioactivity associated with blood cells” value in data set [2] ([2-14C]-5-fluoro-orotate i.p.) is given as “below 10%”. Also, the half-life in data set [2] (mouse, ip, single i.p. dose, plasma, mice, read-out: t1/2 (loss from the circulation)) was around 1.5 h. Besides, the concentration at 1 h in data set [2] (mouse, plasma, ip, 0.2 mg/kg i.p., within 60 minutes, read-out: drug concentration within 60 minutes) is below 0.5 µM. In addition, the Cmax in data set [2] (mouse, plasma, ip, 0.2 mg/kg i.p., read-out: maximum drug concentration) was at most 2 µM; in data set [2] (mouse, plasma, ip, single i.p. 5 mg/kg, read-out: peak plasma concentration) it was around 30 µM. Further, the Tmax in data set [2] (mouse, plasma, ip, single i.p. 0.2, 1, 5 mg/kg, all dosages, read-out: time of peak plasma concentration) was at most 0.333 h. In addition, the concentration in data set [2] (single i.p. 5 mg/kg, read-out: plasma concentration after rapid drop) was below 10 µM. Further, in data set [3] (Indochina clone W-2, 48 h, 1 mM uridine (FIG. 2)), the “effect of uridine on cytotoxicity towards malarial parasites” value is on record as “no effect”.

These data come from US6159953A, “Anti-malarial composition and method of use” (Catholic University of America, priority 1992, dated 2000).
